Laboratory results from US20070089847A1, “Anti-microbial paper products having a substituted 1,2-dihydroquinoline” (Novus International, Inc., priority 2005, published 2007).
Where a name gives a salt, the structure may show the parent alone.

System: Aspergillus niger ATCC 9642 and Aspergillus flavus ATCC 9643
Assay: In vitro disk assay of antifungal properties, agar plates containing test agent (Example 3)
Format: cell-based
Conditions: 48 hours at 25° C.
Method: In this assay, paper disks were soaked in a fungal solution and placed on the surface of agar plates containing different concentration of the test agent. The radius of fungal growth radiating from each disk was considered indicative of the degree of inhibition by the agent relative to a control.
The test agents were diluted in DMSO or water and tested at several different concentrations. The test agents were added to the agar solution after sterilization, but prior to solidification. […] The plates were incubated for 48 hours at 25° C. The zones of fungal growth (or no growth) were analyzed and the minimum total inhibitory concentration (%) was estimated for each agent.

Compound | Minimum Total Inhibitory Concentration (%)
O=P([O-])(O)O.[Na+] [Sodium bi-Phosphate] | >0.5%
CC(O)C(=O)[O-].[Na+] (centres unmarked) [Sodium Lactate] | >0.5%
O=C(O)[C@H](O)[C@@H](O)[C@H](O)[C@H](O)CO [Gluconic Acid] | >0.5%
CCCOC(=O)c1ccc(O)cc1 [Propyl Paraben] | 0.015%
O=C([O-])CC(O)(CC(=O)[O-])C(=O)[O-].[Na+].[Na+].[Na+] [Sodium Citrate] | >0.5%
Cc1cc(O)cc2c1O[C@](C)(CCC[C@H](C)CCC[C@H](C)CCCC(C)C)CC2 [Delta Tocopherol] | >0.5%
O=CC=Cc1ccccc1 [Cinnamaldehyde] | <0.005%
CC(=O)[O-].CC(=O)[O-].[Ca+2] [Calcium Acetate] | >0.5%
CCCCCCCCCCCCCCCC[n+]1ccccc1.[Cl-] [Hexadecylpyridinium Cl] | 0.2%
CCC(=O)[O-].[Na+] [Sodium Proprionate] | >0.5%
O=C(O)CCCCC1CCSS1 (stereo not drawn) [Alpha Lipoic Acid] | 0.1%
N[C@@H](CS)C(=O)O [Cysteine] | >0.5%
O=Cc1ccc2c(c1)OCO2 [Piperonal] | 0.1%
O=C([O-])c1ccccc1.[Na+] [Sodium Benzoate] | >0.5%
CCCCCCCCOC(=O)c1cc(O)c(O)c(O)c1 [Octyl Gallate] | >0.5%
CC(=O)C1C(=O)C=C(C)OC1=O (centres unmarked) [Dehydroacetic Acid] | 0.01%
Cl [HCl] | 0.5%
O=S([O-])([O-])=S.[Na+].[Na+] [Sodium Thiosulfate] | >0.5%
CC(=O)Oc1c(C)c(C)c2c(c1C)CCC(C)(CCC[C@H](C)CCC[C@H](C)CCCC(C)C)O2 (stereo partly drawn) [Alpha Tocopherol Acetate] | >0.5%
O=P([O-])([O-])OP(=O)([O-])[O-].[Na+].[Na+].[Na+].[Na+] [Sodium Pyrophosphate] | >0.5%
O=C([O-])[C@H](O)[C@@H](O)[C@H](O)[C@H](O)CO.[Na+] [Sodium Gluconate] | >0.5%
O=S(=O)([O-])[O-].[Cu+2] [Copper Sulfate] | 0.05%
O=C(O)c1cc(O)c(O)c(O)c1 [Gallic Acid] | >0.5%
O=C(O)CC(O)(CC(=O)O)C(=O)O [Citric Acid] | >0.5%
CC(=O)O [Acetic Acid] | 0.2%
CCC(=O)[O-].CCC(=O)[O-].[Ca+2] [Calcium Propionate] | >0.5%
O=C(O)CO [Glycolic Acid] | >0.5%

Compound | Minimum Total Inhibitory Concentration (%)
CC(=O)C(C)=O [Diacetyl] | 0.1%
Cc1c(C)c2c(c(C)c1O)CC[C@@](C)(CCC[C@H](C)CCC[C@H](C)CCCC(C)C)O2 [Alpha Tocopherol] | >0.5%
NCCCC[C@H](N)C(=O)O [Lysine] | >0.5%
O=C(O)/C=C\C(=O)O [Maleic Acid] | 0.5%
CC=O [Acetaldehyde] | >0.2%
CC(O)C(=O)O (centres unmarked) [Lactic Acid] | >0.5%
CC(=O)O.CC(=O)[O-].[Na+] [Sodium Diacetate] | 0.5%
CCCCCCCCCCCCCCCC(=O)OC[C@H](O)[C@H]1OC(=O)C(O)=C1O [Ascorbyl Palmitate] | >0.5%
CC(C)=CCCC(C)=CC=O [Citral] | 0.1%
COc1ccc(O)c(C(C)(C)C)c1 [BHA (Butylated HydroxyAnisole), Butylated HydroxyAnisole] | 0.025%
C=C(C)[C@H]1CC=C(C)CC1 [Limonene] | >0.5%
O=S([O-])S(=O)(=O)[O-].[Na+].[Na+] [Sodium Metabisulfite] | 0.1%
CCO [Ethanol] | >0.5%
O=C1CCO1 [Beta-Propiolactone] | 0.1%
CCCOC(=O)c1cc(O)c(O)c(O)c1 [Propyl Gallate] | >0.5%
CCCCCCCCCCCCOC(=O)c1cc(O)c(O)c(O)c1 [Dodecyl Gallate] | >0.5%
NCC(=O)O [Glycine] | >0.5%
Stearyl Citrate | >0.5%
O=C(O)CN(CCN(CC(=O)O)CC(=O)O)CC(=O)O [EDTA] | 0.02%
CCCCCCCCCC=O [Decanal] | >0.5%
CCCCC(=O)O [Valeric Acid] | 0.1%
O=Cc1ccccc1 [Benzaldehyde] | 0.5%
COC(=O)c1ccc(O)cc1 [Methyl Paraben] | 0.5%
C=C(C)C1CC=C(C)C(=O)C1 (centres unmarked) [Carvone] | 0.1%
O=C(O)c1ccccc1 [Benzoic Acid] | 0.1%
COc1cc(C=O)ccc1O [Vanillin] | 0.1%
OB(O)O [Boric Acid] | 0.5%

Compound | Minimum Total Inhibitory Concentration (%)
CSCCC(O)C(=O)O (centres unmarked) [2-hydroxy-4(methylthio)butanoic acid] | >0.5%
O=S([O-])O.[Na+] [Sodium Bisulfite] | 0.2%
CC(C)(C)c1cc(O)ccc1O [TBHQ (Tert-ButylHydroQuinone), Tert-ButylHydroQuinone] | 0.1%
O=S(=O)(O)O [Sulfuric Acid] | 0.1%
CC(=O)[O-].[Na+] [Sodium Acetate] | >0.5%
O=C(O)C(O)C(O)C(=O)O (centres unmarked) [Tartaric Acid] | >0.5%
O=C(O)/C=C/C(=O)O [Fumaric Acid] | >0.5%
OO [Hydrogen Peroxide] | 0.1%
O=C(O)CC(=O)O [Malonic Acid] | >0.5%
CCC(=O)O [Proprionic Acid] | 0.2%
CCCCCCCCCCCCOC(=O)CCSCCC(=O)OCCCCCCCCCCCC [Dilauryl Thiodipropionate] | >0.5%
CC(=O)[O-].[K+] [Potassium Acetate] | >0.5%
O=C(O)CCCCC(=O)O [Adipic Acid] | >0.5%
C/C=C/C=C/C(=O)[O-].[K+] [Potassium Sorbate] | >0.5%
O=C([O-])c1ccccc1.[K+] [Potassium Benzoate] | >0.5%
C=CCc1ccc(O)c(OC)c1 [Eugenol] | 0.05%
CCCC(=O)O [Butyric Acid] | 0.2%
CC(=O)C(C)O (centres unmarked) [3-Hydroxy-2-Butanone] | >0.5%
O=C(O)CCO [3-Hydroxypropionic Acid] | >0.5%
O=S([O-])[O-].[Na+].[Na+] [Sodium Sulfite] | >0.5%
O=P(O)(O)O [Phosphoric Acid] | 0.5%
O=P1([O-])OP(=O)([O-])OP(=O)([O-])OP(=O)([O-])OP(=O)([O-])OP(=O)([O-])O1.[Na+].[Na+].[Na+].[Na+].[Na+].[Na+] [Sodium Hexametaphosphate] | >0.5%
N[C@@H](Cc1c[nH]c2ccccc12)C(=O)O [Tryptophan] | >0.5%
O=C1O[C@H]([C@@H](O)CO)C(O)=C1O [Ascorbic Acid] | >0.5%
CSCC[C@H](N)C(=O)O [Methionine] | >0.5%
Cc1cc(C(C)(C)C)c(O)c(C(C)(C)C)c1 [BHT (Butylated HydroxyToluene), Butylated HydroxyToluene] | >0.5%
